Measurements reported in ChEMBL document CHEMBL1155866, “Effects of N-pyrrole substitution on the anti-biofilm activities of oroidin derivatives against Acinetobacter baumannii” (Bioorg Med Chem Lett, 2008).

tested on: Acinetobacter baumannii; test: Inhibition of […] biofilm formation after 24 hrs by crystal violet reporter assay; type: functional, organism-based

Row | SMILES | IC50 [µM]
1 | Nc1nc(CCCNC(=O)c2cc(Br)c(Br)n2C2CCCC2)c[nH]1 | 40.5
2 | Cn1c(C(=O)NCCCc2c[nH]c(N)n2)cc(Br)c1Br [DIHYDROSVENTRIN] | 110

Next, values leading:

Row | IC50 [µM] | SMILES
3 | 26.8 | Nc1nc(CCCNC(=O)c2cc(Br)c(Br)n2-c2ccc(Br)cc2)c[nH]1
4 | 35.4 | Nc1nc(CCCNC(=O)c2cc(Br)c(Br)n2Cc2ccccc2)c[nH]1
5 | 40.7 | Nc1nc(CCCNC(=O)c2cc(Br)c(Br)n2CCc2ccccc2)c[nH]1
6 | 42.8 | COc1ccc(Cn2c(C(=O)NCCCc3c[nH]c(N)n3)cc(Br)c2Br)cc1
7 | 97.7 | Nc1nc(CCCNC(=O)c2cc(Br)c(Br)n2-c2ccccc2)c[nH]1

tested on: Acinetobacter baumannii; test: Inhibition of […] biofilm formation at 500 uM after 24 hrs by crystal violet reporter assay; type: functional

Row | SMILES | inhibition at 500 µM [%]
8 | CCn1c(C(=O)NCCCc2c[nH]c(N)n2)cc(Br)c1Br | 10.3
9 | Cn1c(C(=O)NCCCc2c[nH]c(N)n2)nc(Br)c1Br | 50.7
10 | Cn1c(C(=O)NCCCc2c[nH]c(N)n2)cc(Br)c1Br [DIHYDROSVENTRIN] | > 99

tested on: Acinetobacter baumannii; test: Inhibition of […] biofilm dispersion after 24 hrs by crystal violet reporter assay; type: functional, organism-based

Row | EC50 [µM] | SMILES
11 | 41.3 | Nc1nc(CCCNC(=O)c2cc(Br)c(Br)n2-c2ccc(Br)cc2)c[nH]1
